Results: US6890517B2, “Inhalable formulation of a solution containing a tiotropium salt” (Boehringer Ingelheim Pharma KG, priority 2000, dated 2005)

Assay: stability of budesonide dissolved in water/ethanol at low pH
Type: physicochemical
Details: pH of 3.5; dissolved in a mixture of water and ethanol
Description: In the case of steroids, these are preferably used in suspended form, especially fluticasone. This is particularly true if the solvent used is only water without ethanol. If ethanol is added, the steroid may also be formulated as a solution.

- stability in solution: sufficiently stable
SMILES: CCCC1O[C@@H]2C[C@H]3[C@@H]4CCC5=CC(=O)C=C[C@]5(C)[C@H]4[C@@H](O)C[C@]3(C)[C@]2(C(=O)CO)O1 (stereo partly shown) [budesonide]
